Among the data in patent US6143764A, “Quinoline and quinazoline derivatives inhibiting platelet-derived growth factor receptor autophosphorylation and pharmaceutical compositions containing the same” (priority 1995, dated 2000) are IC50 and inhibition in vivo values, retold here.

One test concerns the target T1, PDGF receptor (Rattus norvegicus, UniProt Q05030).
T1 construct: cultured rat mesangial cells which are known to have the PDGF receptor; endogenous in cells; host or cells: primary mesangial cells cultured from glomeruli of Wistar-Kyoto rats (Charles River Japan), more than 5 passages
Briefly: PDGF receptor autophosphorylation inhibition in cultured rat mesangial cells. The format is cell-based. The conditions noted are these: PDGF-BB 50 ng/ml. The method, boiled down:
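Growth-arrested rat mesangial cells (>5 passages, 0.5% FCS for 3 days) preincubated with drug in 0.1% BSA medium for 1 h at 37° C., then stimulated with 50 ng/ml human PDGF-BB for 10 min. Phosphotyrosine Western blot of ~180 kDa receptor band by densitometry, normalized to PDGF-stimulated (100%) and unstimulated (0%) wells.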

The next test has as its system human glioma (GLO7). Briefly: Antitumor effect of the compounds against human glioma (GLO7), nude mice xenograft. The class given is in vivo. The conditions noted are these: Mus musculus, po, 216 h; nude mice, 50 mg/kg orally once a day, 9 days; read-out: Tumor growth inhibition rate (TGIR). On the technique in general: A xenograft is tissue or cells of one species grown in another, often human tumour cells in immunodeficient mice.

T1 sequence (Q05030 32-1097): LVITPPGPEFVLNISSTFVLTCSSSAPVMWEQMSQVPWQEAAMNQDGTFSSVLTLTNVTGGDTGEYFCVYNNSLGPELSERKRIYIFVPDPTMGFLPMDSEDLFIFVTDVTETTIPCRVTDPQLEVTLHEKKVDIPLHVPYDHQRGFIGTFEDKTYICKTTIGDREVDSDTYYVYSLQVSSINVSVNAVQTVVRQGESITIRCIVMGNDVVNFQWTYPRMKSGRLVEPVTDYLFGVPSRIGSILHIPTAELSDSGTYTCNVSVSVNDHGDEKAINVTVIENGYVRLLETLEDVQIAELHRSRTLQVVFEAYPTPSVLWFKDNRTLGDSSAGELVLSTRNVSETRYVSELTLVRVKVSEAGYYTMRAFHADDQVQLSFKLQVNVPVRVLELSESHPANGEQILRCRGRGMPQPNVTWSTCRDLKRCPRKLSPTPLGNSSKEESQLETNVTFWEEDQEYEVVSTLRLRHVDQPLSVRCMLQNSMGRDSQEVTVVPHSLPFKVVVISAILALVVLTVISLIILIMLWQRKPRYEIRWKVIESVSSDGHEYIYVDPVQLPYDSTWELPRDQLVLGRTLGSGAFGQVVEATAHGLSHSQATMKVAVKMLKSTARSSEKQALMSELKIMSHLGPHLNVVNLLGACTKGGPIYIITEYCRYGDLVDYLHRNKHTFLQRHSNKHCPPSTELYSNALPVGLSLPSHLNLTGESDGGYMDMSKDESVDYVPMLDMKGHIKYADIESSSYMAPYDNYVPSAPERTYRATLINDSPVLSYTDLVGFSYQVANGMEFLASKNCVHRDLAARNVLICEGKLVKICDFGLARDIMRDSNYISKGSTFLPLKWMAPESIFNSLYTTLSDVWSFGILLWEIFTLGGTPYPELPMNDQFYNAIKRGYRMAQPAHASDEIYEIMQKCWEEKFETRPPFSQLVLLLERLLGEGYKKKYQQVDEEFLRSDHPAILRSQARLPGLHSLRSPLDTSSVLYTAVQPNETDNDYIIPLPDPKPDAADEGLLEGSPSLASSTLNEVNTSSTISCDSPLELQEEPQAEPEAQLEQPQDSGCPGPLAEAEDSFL
Protocol for human glioma (GLO7): Analogously to 2, human glioma cells, GLO7 (obtained from the Central Institute for Experimental Animals), was transplanted into nude mice. When the tumor had grown to a volume of about 100 mm^3, the nude mice were divided into several groups of 4 animals so as to equalize the average tumor volumes of each group. The test drug was administered orally to animals in experimental groups once a day for 9 consecutive days at 50 mg/kg, and the vehicle was administered to control animals. The tumor growth inhibition rate (TGIR, %) was calculated from the equation: TGIR=(1-Tx/Cx)×100, in which Cx is the tumor volume in the control mice and Tx is the tumor volume in the drug-treated mice, on day X, when the initial tumor volume at the time treatment was commenced is set 1.

What is called IC50 is the concentration at which inhibition is half-maximal. On PDGF receptor, `COc1cc2nccc(Oc3ccc(NC(=O)Nc4ccc(Cl)c(N)c4)cc3)c2cc1OC` [Compound 244, N-(3-Amino-4-chlorophenyl)-N'-{4-[(6,7-dimethoxy-4-quinolyl)oxy]phenyl}urea] returned an IC50 of 9 nM. For the same molecule, the inhibition in vivo at 50 mg/kg with human glioma (GLO7) stood at 73%.
In the case of `COc1ccc(Cl)cc1NC(=O)Nc1ccc(Oc2ccnc3cc(OC)c(OC)cc23)cc1` [Compound 227, N-(3-Chloro-6-methoxyphenyl)-N'-{4-[(6,7-dimethoxy-4-quinolyl)oxy]phenyl}urea], the IC50 at PDGF receptor turned out to be 73 nM. Further, the inhibition in vivo at 50 mg/kg in the test with human glioma (GLO7) amounted to 78%.
At PDGF receptor, `COc1cc2nccc(Oc3ccc(NC(=O)Nc4ccc(F)cc4)cc3)c2cc1OC` [Compound 44, N-(4-Fluorophenyl)-N'-{4-[(6,7-dimethoxy-4-quinolinyl)oxy]phenyl}urea] displayed a 50% inhibitory concentration (IC50) of 6 nM. In addition, the inhibition in vivo at 50 mg/kg in the test on human glioma (GLO7) was found to be 78%.
Molecule `COc1ccccc1NC(=O)Nc1ccc(Oc2ccnc3cc(OC)c(OC)cc23)cc1` [Compound 57] came in with an IC50 on PDGF receptor of 6 nM. Moreover, in the test with human glioma (GLO7), the inhibition in vivo at 50 mg/kg was 64%.
For `COc1cc2nccc(Oc3ccc(NC(=O)Nc4ccccc4C)cc3)c2cc1OC` [Compound 56, N-{4-[(6,7-Dimethoxy-4-quinolyl)oxy]phenyl}-N'-(2-methylphenyl)urea], in that order: 4 nM and 52%.
Molecule `CCCNC(=O)Nc1ccc(Oc2ccnc3cc(OC)c(OC)cc23)cc1` [Compound 194, N-{4-[(6,7-Dimethoxy-4-quinolyl)oxy]phenyl}-N'-propylurea] returned an IC50 on PDGF receptor of 14 nM. For the same molecule, in the test on human glioma (GLO7), the inhibition in vivo at 50 mg/kg turned out to be 59%.
For the molecule `COc1cc2nccc(Oc3ccc(NC(=O)Nc4ccc(F)c(F)c4)cc3)c2cc1OC` [Compound 254, N-(3,4-Difluorophenyl)-N'-(4-[(6,7-dimethoxy-4-quinolyl)oxy]phenyl)urea], the IC50 against PDGF receptor came out at 7 nM. For the same molecule, the inhibition in vivo at 50 mg/kg in the test on human glioma (GLO7) is 85%.
Molecule `COc1cc2nccc(Oc3ccc(NC(=O)Nc4ccc(C(F)(F)F)cc4)cc3)c2cc1OC` [Compound 52, N-(4-Trifluoromethylphenyl)-N'-{4-[(6,7-dimethoxy-4-quinolinyl)oxy]phenyl}urea] returned a concentration for half-maximal inhibition (IC50) against PDGF receptor of 30 nM. The inhibition in vivo at 50 mg/kg with human glioma (GLO7) turned out to be 86%.
On PDGF receptor, `COc1cc2nccc(Oc3ccc(NC(=O)Nc4c(F)ccc(F)c4F)cc3)c2cc1OC` [Compound 262, N-(2,3,6-Trifluorophenyl)-N'-{4-[(6,7-dimethoxy-4-quinolyl)oxy]phenyl}urea] came in with an IC50 of 2 nM. Besides, the inhibition in vivo at 50 mg/kg in the test with human glioma (GLO7) turned out to be 87%.
`CCOC(=O)NC(=O)Nc1ccc(Oc2ccnc3cc(OC)c(OC)cc23)cc1` [Compound 190, N-Ethoxycarbonyl-N'-{4-[(6,7-Dimethoxy-4-quinolyl)oxy]phenyl}urea] registered a concentration for half-maximal inhibition (IC50) on PDGF receptor of 21 nM. In addition, in the test on human glioma (GLO7), the inhibition in vivo at 50 mg/kg is 50%.
On to `COc1cc2nccc(Oc3ccc(NC(=O)Nc4ccc(Cl)cc4C)cc3)c2cc1OC` [Compound 242, N-(4-Chloro-2-methylphenyl)-N'-{4-[(6,7-dimethoxy-4-quinolyl)oxy]phenyl}urea], for which, on PDGF receptor, the IC50 is 18 nM. Further, the inhibition in vivo at 50 mg/kg in the test on human glioma (GLO7) worked out at 62%.
On the same counts, the results for `COc1cc2nccc(Oc3ccc(NC(=O)Nc4cccc(Cl)c4OC)cc3)c2cc1OC` [Compound 225, N-(3-Chloro-2-methoxyphenyl)-N'-{4-[(6,7-dimethoxy-4-quinolyl)oxy]phenyl}urea] are 47 nM and 58%.
In turn, `COc1cc2nccc(Oc3ccc(NC(=O)Nc4cccc(F)c4F)cc3)c2cc1OC` [Compound 260, N-(2,3-Difluorophenyl)-N'-{4-[(6,7-dimethoxy-4-quinolyl)oxy]phenyl}urea] displayed a half-maximal inhibitory concentration (IC50) against PDGF receptor of 2 nM. For the same molecule, the inhibition in vivo at 50 mg/kg in the test on human glioma (GLO7) turned out to be 52%.
For `C=CCNC(=O)Nc1ccc(Oc2ccnc3cc(OC)c(OC)cc23)cc1` [Compound 173, N-Allyl-N'-{4-[(6,7-dimethoxy-4-quinolyl)oxy]phenyl}urea], in that order: 16 nM and 54%.
